Laboratory results published in ChEMBL document CHEMBL1687934, “The discovery of potent and long-acting oral factor Xa inhibitors with tetrahydroisoquinoline and benzazepine P4 motifs” (Bioorg Med Chem Lett, 2011).

What was measured:
Format in all cases: ADME, organism-based
[1] = Plasma clearance in iv or po dosed Sprague-Dawley rat
[2] = Half life in iv or po dosed Sprague-Dawley rat; details: in vivo
[3] = Volume of distribution at steady state in iv or po dosed Sprague-Dawley rat; details: in vivo, read-out: Vdss
[4] = Oral bioavailability in Sprague-Dawley rat; details: in vivo

Work on `O=C1[C@@H](NS(=O)(=O)/C=C/c2ccc(Cl)s2)CCN1c1cc2c(cc1F)CNCC2` yielded a clearance [1] of 1.4 mL/min/kg, a half-life [2] of 294 min and a Vd [3] of 0.5 L/kg. The bioavailability [4] was 43%.

Molecule `O=C1[C@@H](NS(=O)(=O)/C=C/c2ccc(Cl)s2)CCN1c1ccc2c(c1F)CCNC2` has a clearance [1] of 3 mL/min/kg, a half-life [2] of 198 min and a Vd [3] of 0.9 L/kg. The bioavailability [4] was 68%.

Work on `O=C1[C@@H](NS(=O)(=O)c2ccc3cc(Cl)ccc3c2)CCN1c1cc2c(cc1F)CNCC2` yielded a clearance [1] of 1.7 mL/min/kg, a half-life [2] of 450 min and a Vd [3] of 1 L/kg. For the same molecule, the bioavailability [4] was 28%.

With `O=C1[C@@H](NS(=O)(=O)c2ccc3cc[nH]c3c2)CCN1c1ccc2c(c1)CCNC2` the clearance [1] was 12 mL/min/kg, the half-life [2] was 366 min and the Vd [3] was 4.1 L/kg. For the same molecule, the bioavailability [4] was under 1%.

In the case of `O=C1[C@@H](NS(=O)(=O)c2ccc3c(Cl)c[nH]c3c2)CCN1c1cc2c(cc1F)CNCC2`, the clearance [1] is reported as 1.3 mL/min/kg, the half-life [2] is reported as 372 min and the Vd [3] is reported as 0.5 L/kg. The bioavailability [4] was 6%.

In the case of `CN[C@@H](C)c1ccc(N2CC[C@H](NS(=O)(=O)c3ccc4cc(Cl)ccc4c3)C2=O)c(F)c1`, the clearance [1] is reported as 1.6 mL/min/kg, the half-life [2] is reported as 1080 min and the Vd [3] is reported as 2.4 L/kg. It also gave a bioavailability [4] of over 10%.

In the case of `O=C1[C@@H](NS(=O)(=O)c2ccc3cc(Cl)ccc3c2)CCN1c1ccc2c(c1)CCCNC2`, the clearance [1] is reported as 6.8 mL/min/kg, the half-life [2] is reported as 582 min and the Vd [3] is reported as 5.5 L/kg. The bioavailability [4] was 10%.

`O=C1[C@@H](NS(=O)(=O)c2ccc3c(Cl)c[nH]c3c2)CCN1c1ccc2c(c1F)CCNC2` gave a clearance [1] of 2.7 mL/min/kg, a half-life [2] of 468 min and a Vd [3] of 1.5 L/kg. It also gave a bioavailability [4] of 7%.

Work on `O=C1[C@@H](NS(=O)(=O)/C=C/c2ccc(Cl)s2)CCN1c1ccc2c(c1)CCCNC2` yielded a clearance [1] of 7.8 mL/min/kg, a half-life [2] of 264 min and a Vd [3] of 2.6 L/kg. The bioavailability [4] was 45%.

Molecule `O=C1[C@@H](NS(=O)(=O)/C=C/c2ccc(Cl)s2)CCN1c1ccc2c(c1)CCNC2` has a clearance [1] of 3 mL/min/kg, a half-life [2] of 210 min and a Vd [3] of 0.9 L/kg.

`O=C1[C@@H](NS(=O)(=O)c2ccc3cc(Cl)ccc3c2)CCN1c1ccc2c(c1F)CCNC2` showed a clearance [1] of 2.1 mL/min/kg, a half-life [2] of 402 min and a Vd [3] of 2.4 L/kg.

With `O=C1[C@@H](NS(=O)(=O)c2ccc3c(Cl)c[nH]c3c2)CCN1c1ccc2c(c1)CCNC2` the clearance [1] was 7.7 mL/min/kg, the half-life [2] was 378 min and the Vd [3] was 2.9 L/kg. The bioavailability [4] was under 1%.

In the case of `CN1CCc2cc(N3CC[C@H](NS(=O)(=O)/C=C/c4ccc(Cl)s4)C3=O)ccc2C1`, the clearance [1] is reported as 26 mL/min/kg, the half-life [2] is reported as 24 min and the Vd [3] is reported as 0.7 L/kg. For the same molecule, the bioavailability [4] was 33%.

`O=C1[C@@H](NS(=O)(=O)c2ccc3cc(Cl)ccc3c2)CCN1c1ccc2c(c1)CCNC2` showed a clearance [1] of 4 mL/min/kg, a half-life [2] of 660 min and a Vd [3] of 3.6 L/kg. The bioavailability [4] was 24%.
